Experimental data reported in patent publication US5652232A, “Benzolactam derivatives” (Shionogi & Co., Ltd., priority 1993, dated 1997).
Converted amounts (≈) assume the structure as drawn. Like-named read-outs stand apart in the source and are kept apart here.

Assays:
HIV (HIV-1IIIB strain) = experiment: Antiviral activity: inhibition of HIV cytotoxicity in MT-4 cells (MTT); type: cell-based; settings: Human immunodeficiency virus 1, MT4, 120 h, read-out: EC50: concentration of the compound that achieved 50% inhibition of cytotoxicity by the virus
Experimental: (§1) (A) A human T-cell strain MOLT-4 clone 8, persistently infected with HIV (HIV-1IIIB strain), was cultured in RPMI-1640 medium supplemented with 10% fetal bovine serum. The culture supernatant was then filtered and stored at -80° C. after a measurement of viral titer. Each of test compounds was diluted with the above culture medium so as to be a predetermined concentration, and 50 μl of the solution was added to each of wells of a 96-well microtiter plate. Then, after the addition of each 100 μl of MT-4 cell suspension (3.5×10^4 cells) to the well, the above-prepared HIV-containing supernatant was diluted with the above medium and 50μl of the dilution (60 plaque forming units) was added to each well.
(§2) (B) After incubation of the 96-well microtiter plate in a CO2 -incubator at 37° C. for 5 days, 30 μl of MTT [3-(4,5-dimethylthiazole-2-yl)-2,5-diphenyltetrazorium bromide, 5 mg/ml, PBS] was added to each well and incubation was continued for 1 hour.
(§3) Cells having survived reduced MTT to precipitate formazan. 150 μl of culture supernatant was removed from each well and 150 μl of a solubilizing solution (10% Triton X-100 and isopropanol supplemented with 0.4% (V/V) HCl) was added to each well and the plate was shaken by using a plate mixer to dissolve the formazan. The dissolved formazan was measured by O.D. at 540 nm and the results were compared with referenced control. EC50 (μg/ml) was defined as a concentration of the compound that achieved 50% inhibition of cytotoxicity by the virus. DMSO was used as a solvent and the tested concentrations were 0.0001-10 μg/ml.

[1] = Cytotoxicity against MT-4 cells (MTT); type: cell-based; settings: human
Experimental: as §1, §2, §3
Cytotoxicities of the test compounds against the MT-4 cells were measured in the same manner as step (A) of the above-described antiviral activity test, provided that 50 μl of the culture medium was added to each well instead of the HIV-containing supernatant (virus solution), which was followed by the same treatment as step (B). CC50 (μg/ml) was defined as a concentration of test compound inducing 50% cytotoxicity.

[2] = MT-4 cells, no virus, 5 days at 37° C., MTT, read-out: CC50: concentration of test compound inducing 50% cytotoxicity

Structure (SMILES) | EC50 (HIV (HIV-1IIIB strain)) | CC50 at 120 h [1, 2] | CC50 at 120 h ([1]; mt-4 cells)
CCCCCCCCCCc1ccc2c(c1)N(C)[C@@H](C(C)C)C(=O)N[C@H](CO)C2 (relative stereo) [(±)-BL-V8-310] | 0.001 to 0.01 mg/L (≈ 0.00248 to 0.0248 µM) | 1 mg/L (≈ 2.48 µM) | 
CCCCCCCCCCc1ccc2c(c1)N(C)[C@@H](C(C)C)C(=O)N[C@@H](CO)C2 (relative stereo) [(±)-epi-BL-V8-310] | 0.13 mg/L (≈ 0.323 µM) | 1 mg/L (≈ 2.48 µM) | 
CC(C)[C@H]1C(=O)N[C@H](CO)Cc2cc3c(cc2N1C)C(C)(C)CCC3(C)C (relative stereo) [BL-V8-23T] |  | 1 to 10 mg/L (≈ 2.68 to 26.8 µM) | 
CC(C)[C@H]1C(=O)N[C@H](CO)Cc2ccccc2N1C (relative stereo) [BL-V8] | 0.1 to 1 mg/L (≈ 0.381 to 3.81 µM) | 10 mg/L (≈ 38.1 µM) | 
CCCCCCCCCCc1ccc2c(c1)N(C)[C@@H](C(C)C)C(=O)N[C@H](CO)CC2 (relative stereo) [BL-V9-310] | 2.5 to 5 mg/L (≈ 6 to 12 µM) | 10 mg/L (≈ 24 µM) | 
CC(C)[C@H]1C(=O)N[C@H](CO)CCc2ccccc2N1C (relative stereo) [BL-V9] | > 10 mg/L | > 10 mg/L | 
CC(C)[C@H]1C(=O)N[C@H](CO)CCCc2ccccc2N1C (relative stereo) [BL-V10] | > 10 mg/L |  | > 10 mg/L
CC(C)[C@@H]1C(=O)N[C@H](CO)Cc2cc3c(cc2N1C)C(C)(C)CCC3(C)C (relative stereo) [epi-BL-V8-23T] |  | 1 to 10 mg/L (≈ 2.68 to 26.8 µM) | 
CC(C)[C@H]1C(=O)N[C@@H](CO)Cc2ccccc2N1C (relative stereo) [epi-BL-V8] | 2.5 to 5 mg/L (≈ 9.53 to 19.1 µM) | 10 mg/L (≈ 38.1 µM) | 
CCCCCCCCCCc1ccc2c(c1)N(C)[C@H](C(C)C)C(=O)N[C@H](CO)CC2 (relative stereo) [epi-BL-V9-310] | 0.3 mg/L (≈ 0.72 µM) | 5 to 10 mg/L (≈ 12 to 24 µM) | 
CC(C)[C@H]1C(=O)N[C@@H](CO)CCc2ccccc2N1C (relative stereo) [epi-BL-V9] | > 10 mg/L | > 10 mg/L | 
CC(C)[C@H]1C(=O)N[C@@H](CO)CCCc2ccccc2N1C (relative stereo) [epi-BL-V10] | > 10 mg/L |  | > 10 mg/L
CCCCCCCCCCc1ccc2c(c1)N(C)[C@H](C(C)C)C(=O)N[C@@H](CO)C2 [(+)-BL-V8-310] | 0.05 to 0.1 mg/L (≈ 0.124 to 0.248 µM) | 5 to 10 mg/L (≈ 12.4 to 24.8 µM) | 
CCCCCCCCCCc1ccc2c(c1)N(C)[C@H](C(C)C)C(=O)N[C@H](CO)C2 [(+)-epi-BL-V8-310] | 0.1 mg/L (≈ 0.248 µM) | 5 to 10 mg/L (≈ 12.4 to 24.8 µM) | 
CCCCCCCCCCc1ccc2c(c1)N(C)[C@@H](C(C)C)C(=O)N[C@H](CO)C2 [(-)-BL-V8-310] | 0.003 mg/L (≈ 0.00745 µM) | 5 to 10 mg/L (≈ 12.4 to 24.8 µM) | 
CCCCCCCCCCc1ccc2c(c1)N(C)[C@@H](C(C)C)C(=O)N[C@@H](CO)C2 [(-)-epi-BL-V8-310] | 0.16 mg/L (≈ 0.397 µM) | 2.5 to 5 mg/L (≈ 6.21 to 12.4 µM) | 
